Reference: patent US20230338362A1 (priority 2020, published 2023)
pIC50: −log10 of the molar value. Read-outs that look alike come from different tables or passages of the source.

Key:
MERS-CoV = assay type: cell-based
SARS-CoV-2 = SARS-CoV-2 inhibition, cell viability assay (CellTiter-Glo) in VERO-E6 cells enriched for ACE-2; assay type: cell-based
SARS-CoV = assay type: cell-based
common cold coronavirus = assay: In vitro activity against common cold coronaviruses, methods analogous to Example 1; assay type: cell-based
Influenza B = assay: In vitro activity against Influenza B, methods analogous to Example 1; assay type: cell-based
Influenza A = assay: In vitro activity against Influenza A, methods analogous to Example 1; assay type: cell-based
[1] = system: macrophages treated with SARS-CoV-2 Spike protein; assay type: cell-based, human; also: test concentration or dose not given here
[2] = system: macrophages treated with SARS-CoV-2 Spike protein; assay type: cell-based, human; remark: listed apart in the source; also: test concentration or dose not given here
[3] = Severe acute respiratory syndrome coronavirus 2, Vero C1008; Table II, antiviral compounds; VERO-E6 cells enriched for ACE-2 plus SARS-CoV-2; read-out: IC50
[4] = Severe acute respiratory syndrome coronavirus 2, Vero C1008; read-out: IC50 in an in vitro inhibition assay against SARS-CoV-2

Compound	activity against MERS-CoV (MERS-CoV)	pIC50 (SARS-CoV-2; [3])	pIC50 (SARS-CoV-2; [4])	activity against SARS-CoV (SARS-CoV)	activity against common cold coronavirus (common cold coronavirus)	activity against Influenza B (Influenza B)	activity against Influenza A (Influenza A)	apoptosis by activation of caspase 3 [1]	apoptosis by caspase 3 activation [1]	anti-inflammatory cytokines [2]	expression of cytokine modulators / anti-inflammatory cytokines [2]	expression of pro-inflammatory cytokines [2]	expression of the anti-inflammatory cytokine IL-10 [2]	multiple pro-inflammatory cytokines [2]	pro-inflammatory cytokines [2]	pIC50 (SARS-CoV-2; Severe acute respiratory syndrome coronavirus 2, Vero C1008, read-out: IC50 in an in vitro inhibition assay against SARS-CoV-2)
O=C(O)[C@H]1O[C@@H](Oc2cc3oc(-c4ccccc4)cc(=O)c3c(O)c2O)[C@H](O)[C@@H](O)[C@@H]1O [Baicalin, baicalin]	active	5.22	5.22	active	active	active	active	–	–	–	–	–	–	–	–	–
CC(C)=CCc1cc(C(=O)/C=C/c2ccc(O)cc2)c(O)cc1O [Bavachalcone B]	active	5.84	5.84	active	active	active	active	–	–	–	–	–	–	–	–	–
COc1ccc2cc1Oc1ccc(cc1)C[C@H]1c3c(cc4c(c3Oc3cc5c(cc3OC)CCN(C)[C@@H]5C2)OCO4)CCN1C [Cepharanthine, (14S,27S)-22,33-dimethoxy-13,28-dimethyl-2,5,7,20-tetraoxa-13,28-diazaoctacyclo[25.6.2.2^16,19.1^3,10.1^21,25.0^4,8.0^31,35.0^14,39]nonatri-aconta-1(33),3(39),4(8),9,16(38),17,19(37),21,23,25(36),31,34-dodecaene]	active	6.29	6.29	active	active	active	active	selectively induces apoptosis	induced apoptosis	inducing anti-inflammatory cytokines such as IL-10	activating expression of the anti-inflammatory cytokine IL-10	inhibited expression of pro-inflammatory cytokines VEGF, IL-6, IL-8, GRO, MIP-1α, MIP-1β and MMP-9	increasing expression of the anti-inflammatory cytokine IL-10	suppressed multiple pro-inflammatory cytokines such as IL-1β, TNF-α, IL-6 IL-8, IL-12, MCP-1 and MIP-1α	selectively inhibited pro-inflammatory cytokine, such as VEGF, IL-6, IL-8, GRO, MIP-1α, MIP-1β and MMP-9	–
CN(C)CCCSc1ccccc1NC(=O)/C=C/c1ccccc1 [Cinanserin, cinanserin]	active	4.86	4.86	active	active	active	active	–	–	–	–	–	–	–	–	–
COc1ccc2cc1Oc1ccc(cc1)C[C@H]1c3cc(c(OC)cc3CCN1C)Oc1c(O)c(OC)cc3c1[C@H](C2)N(C)CC3 [Fangchinoline, (1S,14S)-9,20,25-trimethoxy-15,30-dimethyl-7,23-dioxa-15,30-diazaheptacyclo[22.6.2.2^3,6.1^8,12.1^14,18.0^27,31.0^22,33]hexatriaconta-3(36),4, 6(35),8,10,12(34),18,20,22(33),24,26,31-dodecaen-21-ol]	active	5.69	5.69	active	active	active	active	selectively induces apoptosis	induced apoptosis	–	–	inhibited expression of pro-inflammatory cytokines VEGF, IL-8, MIP-1β and MMP-9	–	–	selectively inhibited pro-inflammatory cytokines, such as VEGF, IL-8, GRO, MIP-1β and MMP-9	–
O=C(/C=C/c1ccc(O)c(O)c1)O[C@H](Cc1ccc(O)c(O)c1)C(=O)O [Rosmarinic acid]	active	6.05	–	active	active	active	active	–	–	–	–	–	–	–	–	6.05
COc1ccc2cc1Oc1ccc(cc1)C[C@H]1c3cc(c(OC)cc3CCN1C)Oc1c(OC)c(OC)cc3c1[C@H](C2)N(C)CC3 [Tetrandrine, (1S,14S)-9,20,21,25-tetramethoxy-15,30-dimethyl-7,23-dioxa-15,30-diazaheptacyclo[22.6.2.2^3,6.1^8,12.1^14,18.0^27,31.0^22,33]hexatriaconta-3(36),4,6(35),8,10,12(34),18,20,22(33),24,26,31-dodecaene]	active	–	–	active	active	active	active	selectively induces apoptosis	induced apoptosis	inducing anti-inflammatory cytokines, such as IL-10	activating expression of the anti-inflammatory cytokine IL-10	inhibited expression of pro-inflammatory cytokines VEGF, IL-6, IL-8, MIP-1α and MIP-1β	–	–	selectively inhibited pro-inflammatory cytokine, such as VEGF, IL-6, IL-8, MIP-1α and MIP-1β	–
O=c1cc(-c2ccccc2)oc2cc(O)c(O)c(O)c12 [baicalein, 5,6,7-trihydroxy-2-phenylchromen-4-one]	–	–	–	–	–	–	–	selectively induces apoptosis	induced apoptosis	inducing anti-inflammatory cytokines such as IL-10	activated expression of cytokine modulators IL-10 and IFN-γ	inhibited expression of pro-inflammatory cytokines IL-1α, IL-8, GRO, MCP-1, MIP-1α, MIP-1β, MMP-9 and TNF-α	–	–	selectively inhibited pro-inflammatory cytokine, such as IL-1α, IL-8, GRO, MCP-1, MIP-1α, MIP-1β, MMP-9 and TNF-α	–
O=C(/C=C/c1ccccc1)Nc1ccccc1 [cinnamanilide, (E)-N,3-diphenylprop-2-enamide]	–	–	–	–	–	–	–	–	–	inducing anti-inflammatory cytokines such as IL-10	activated expression of cytokine modulator IL-10	inhibited expression of pro-inflammatory cytokines IL-1α, VEGF, IL-6, IL-8, IL-13, GM-CSF, MIP-1α, MIP-1β, MMP-9 and RANTES	–	–	selectively inhibited pro-inflammatory cytokine, such as IL-1α, VEGF, IL-6, IL-8, IL-13, GM-CSF, MIP-1α, MIP-1β, MMP-9 and RANTES	–
COc1ccc(-c2coc3cc(O)ccc3c2=O)cc1 [formononetin, 7-hydroxy-3-(4-methoxyphenyl)chromen-4-one]	–	–	–	–	–	–	–	selectively induces apoptosis	induced apoptosis	inducing anti-inflammatory cytokines, such as IL-10 and IFN-γ	activated expression of cytokine modulators IL-10 and IFN-γ	inhibited expression of pro-inflammatory cytokines VEGF, IL-6, IL-8, GRO, MCP-1, MIP-1α, MIP-1β, MMP-9 and RANTES	–	–	selectively inhibited pro-inflammatory cytokine, such as VEGF, IL-6, IL-8, GRO, MCP-1, MIP-1α, MIP-1β, MMP-9 and RANTES	–
CC(C)=CCc1cc([C@@H]2CCc3ccc(O)cc3O2)c(CC=C(C)C)c(O)c1O [kazinol A, 4-[(2S)-7-hydroxy-3,4-dihydro-2H-chromen-2-yl]-3,6-bis(3-methylbut-2-enyl)benzene-1,2-diol]	–	–	–	–	–	–	–	selectively induces apoptosis	induced apoptosis	inducing anti-inflammatory cytokines such as IL-10	activated expression of cytokine modulator IL-10	inhibited expression of pro-inflammatory cytokines IL-1α, IL-4, IL-8, MIP-1β and MMP-9	–	–	selectively inhibited pro-inflammatory cytokine, such as IL-1α, IL-4, IL-8, MIP-1β and MMP-9	–
